Laboratory results taken from article PMC7497240 (Chembiochem, 2020).

Molecular target: T1, ABCG2 (Homo sapiens, UniProt Q9UNQ0)
T1 sequence (Q9UNQ0 1-655): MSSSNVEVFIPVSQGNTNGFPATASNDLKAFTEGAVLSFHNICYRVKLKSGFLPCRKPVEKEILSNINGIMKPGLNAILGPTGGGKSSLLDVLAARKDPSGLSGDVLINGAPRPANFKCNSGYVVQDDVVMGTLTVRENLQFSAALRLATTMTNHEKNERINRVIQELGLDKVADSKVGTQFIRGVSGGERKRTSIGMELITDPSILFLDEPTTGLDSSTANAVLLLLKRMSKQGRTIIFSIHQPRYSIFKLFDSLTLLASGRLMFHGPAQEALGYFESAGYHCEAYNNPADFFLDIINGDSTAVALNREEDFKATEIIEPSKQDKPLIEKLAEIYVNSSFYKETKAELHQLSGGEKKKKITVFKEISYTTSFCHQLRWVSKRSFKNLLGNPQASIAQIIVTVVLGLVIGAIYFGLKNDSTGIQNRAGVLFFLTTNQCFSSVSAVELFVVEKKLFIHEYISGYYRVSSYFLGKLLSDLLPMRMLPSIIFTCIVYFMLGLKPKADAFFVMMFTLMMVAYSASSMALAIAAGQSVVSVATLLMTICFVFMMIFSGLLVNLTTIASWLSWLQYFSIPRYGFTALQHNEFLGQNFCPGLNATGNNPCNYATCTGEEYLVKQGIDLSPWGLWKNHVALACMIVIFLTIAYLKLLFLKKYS
Assay: Hoechst […] accumulation assay in ABCG2-transfected MDCK II BCRP cells
Assay type: cell-based

## O=C1NC(=O)c2c1c1c3ccccc3[nH]c1c1[nH]c3ccccc3c21 [compound 8, arcyriaflavin A]
  IC50: 9 µM
